Measurements: patent publication US7291625B2, “Use of a vitamin combination for the treatment of pruritus and non-infective disorders involving itching and/or inflammation” (priority 1999, dated 2007)
Read-outs that look alike come from different tables or passages of the source.

Columns and labels:
anal and vulvar pruritus = experiment: Clinical case reports: anal and vulvar pruritus; assay type: in vivo, human
Source text: (§1) It is advisable to take the medicament by the oral route, after the main meals, with abundant water (at least half a glass). In the event that the treatment is discontinued and the symptoms revert, it is necessary to start again from the 1st phase.
As a first attempt, a gastroenterologist had been consulted for the anal itching, and thereafter a gynaecologist had been consulted for the vulvar itching.
The treatment was continued for 12 more days, and then it was reduced to half the dosage, for 15 days a month.
Then, the patient was given a therapy with 50 mg of nicotinamide twice daily, by oral administration, after the main meals. […] The patient continued to take 50 mg of nicotinamide daily, after dinner, for 15 days, and then they discontinued the treatment.
The treatment was then continued for 15 more days, with half the dosage, and then finally discontinued.

[1] = test system: uremic pruritus and sine materia pruritus forms; experiment: Clinical experimentation: systemic niacin or niacinamide alone at pellagra dosage in pruritus forms; settings: for effectiveness in combating the pruritus forms: systemic administration alone at pellagra dosage, uremic and sine materia pruritus
[2] = systemic, 2 to 6 g per day, therapy of hyperlipidemia; cited from earlier work
senile pruritus = experiment: Clinical case reports: senile pruritus; assay type: in vivo, human
Source text: as §1
3rd case— subject with senile pruritus—The patient had been complaining for about 3 years of a diffused itching, which had become increasingly intense. At first, they consulted their physician, who addressed them to a dermatologist.
The patient was then treated by oral administration of 50 mg of nicotinamide+2.5 mg of riboflavin twice daily. […] Thereafter, the therapy was reduced to half the dosage, for 15 days a month.
4th case— subject with senile pruritus—The patient had been suffering for about 2 years and a half from a diffused continuous itching at the torso and on the upper and lower limbs.
The treatment was continued with half the dose for further 15 days and then it was finally discontinued.
The treatment with half the dose was continued for 15 days, and then it was discontinued.
3rd case— subject with senile pruritus—The patient had been suffering for about one year from a diffused itching. […] Thereafter, the diagnosis of senile itching was made.

uremic pruritus = experiment: Clinical case reports: uremic pruritus (renal dialysis, chronic renal failure or insufficiency); assay type: in vivo, human
Protocol: In the treatment of uremic subjects who currently undergo dialysis the protocol is the same as for the 1st phase above, but the continuation of the treatment with half the dose will take place starting after each dialysis treatment (also in this case, after the meal and with abundant water).
Thereafter, the patient was treated with 50 mg of nicotinamide+2.5 mg of riboflavin twice daily, by oral administration. […] The patient continued the same therapy for about 15 days, and thereafter the dosage was reduced to one-half, the administration occurring after the dialysis treatment. […]
Lastly, they underwent an additional 3 hours dialysis treatment each week, with carbon filter, for four weeks on end.
The treatment was started with 50 mg of nicotinamide twice daily, to be taken orally after the main meals. […] The patient continued to take 50 mg of nicotinamide after dinner for 15 more days, and then they took 50 mg of the same agent only on the day of the dialytic treatment. […]

[3] = test system: uremic pruritus and sine materia pruritus forms; settings: human, in vivo

NC(=O)c1cccnc1 [nicotinamide]
itching after 60 days (anal and vulvar pruritus; series 2 case 3: anal vulvar pruritus, 50 mg nicotinamide alone twice daily oral): itching was moderate | itching 15 days after discontinuation (anal and vulvar pruritus; series 2 case 3, nicotinamide alone): itching started to increase again | symptoms after 2 months (anal and vulvar pruritus; series 3 case 4: anal and vulvar pruritus, 50 mg nicotinamide alone twice daily oral): a decrease of the symptoms was detected | itching at subsequent monthly checks (anal and vulvar pruritus; series 3 case 4, still taking 50 mg/day nicotinamide): still complained of a moderate itching | effectiveness in combating the pruritus forms [1]: not appreciably effective | side effects of flushing and itching ([1]; systemic administration alone at the dosage used for prevention and therapy of pellagra): does not lead to the undesired side effects of flushing and itching | adverse side effects at large doses [2]: adverse side effects, including gastrointestinal disturbances (such as abdominal pain and nausea) hepatotoxicity, and, above all, flushing | pruritus after 40 days (senile pruritus; series 2 case 4: senile pruritus, 50 mg nicotinamide alone twice daily oral): pruritus was quite mild | itching about 10 days after discontinuation (senile pruritus; series 2 case 4, nicotinamide alone): itching had started again to increase | itching after 45 days (senile pruritus; series 3 case 3: senile pruritus, 50 mg nicotinamide alone twice daily oral): itching had only slightly decreased | itching at subsequent monthly checks (senile pruritus; series 3 case 3, nicotinamide therapy continued): diffused moderate itching | pruritus after one month and a half (uremic pruritus; series 2 case 1: person on renal dialysis, 50 mg nicotinamide alone twice daily oral): pruritus had sensibly decreased | itching at check-up after one month (uremic pruritus; series 2 case 1, nicotinamide alone, reduced to 50 mg on dialysis days): still complained of some moderate itching | symptom after 45 days (uremic pruritus; series 2 case 2: person on renal dialysis, 50 mg nicotinamide alone twice daily oral): appreciable reduction of the symptom | itching 15 days after discontinuation (uremic pruritus; series 2 case 2, nicotinamide alone): itching had started again to gradually increase | itching after 35 days (uremic pruritus; series 2 case 5: chronic renal insufficiency, 50 mg nicotinamide alone twice daily oral): some moderate itching | itching about 10 days after discontinuation (uremic pruritus; series 2 case 5, nicotinamide alone): itching had started to increase again | itching after 65 days (uremic pruritus; series 3 case 1: person on renal dialysis three times weekly, 50 mg nicotinamide alone twice daily oral): itching had only become milder without disappearing | pruritus at check-ups every 2 months (uremic pruritus; series 3 case 1, 50 mg nicotinamide after each dialysis treatment): persistent pruritus of a reduced intensity | itching after 50 days (uremic pruritus; series 3 case 2: renal insufficiency, 50 mg nicotinamide alone twice daily oral): itching had become milder, without totally disappearing | itching at subsequent periodical checks (uremic pruritus; series 3 case 2, continued 50 mg/day nicotinamide): moderate itching diffused on the whole body

O=C(O)c1cccnc1 [niacin, 3-pyridinecarboxylic acid]
side effects of flushing and itching [3]: does not lead to the undesired side effects of flushing and itching | effectiveness in combating the pruritus forms [1]: not appreciably effective | adverse side effects at large doses [2]: adverse side effects, including gastrointestinal disturbances (such as abdominal pain and nausea) hepatotoxicity, and, above all, flushing
